The test deals with T1, sialidase (neuraminidase, NA) of oseltamivir-sensitive 838 (Influenza A virus (A/Lima/070674913/2013(H1N1)), UniProt W8DXJ8).
T1 construct: full-length viral NA on whole virus grown in MDCK cells (or on infected MDCK cells); natural 275H
As to the kind of experiment: live-focus fluorescence imaging of sialidase activity, qualitative. It is filed as cell-based. The note with it: substrate BTP3-Neu5Ac, 37 °C, 1 h, infected MDCK cells.

The text below walks through data of article PMC4883822, “High-Efficiency Capture of Drug Resistant-Influenza Virus by Live Imaging of Sialidase Activity” (PLoS ONE, 2016).

In the case of `CCC(CC)[C@H](NC(C)=O)[C@@H]1[C@H](O)[C@@H](C(=O)O)C[C@H]1N=C(N)N` [peramivir], the “inhibition at 10-1000 nM (qualitative)” value is “adding BTP3-Neu5Ac with clinical use-approved NAIs (oseltamivir, zanamivir, peramivir, and laninamivir)”.
